Source: ChEMBL document CHEMBL5137049, “Discovery of a Novel Small-Molecule Inhibitor Disrupting TRBP-Dicer Interaction against Hepatocellular Carcinoma via the Modulation of microRNA Biogenesis” (J Med Chem, 2022)
Calls of active or inactive are those of the source. The calls are words filed in the database; no cut-off is given here.

Key:
[1] = Toxicity in SCID mouse xenografted with human MHCC97-L cells assessed as effect on liver at 10 to 50 mg/kg, ip administered every 2 days for 4 weeks by hematoxyin-eosin staining based analysis; type: organism-based; settings: in vivo, 672 h, dose 10-50 mg/kg
[2] = system: SK-HEP1; test: Downregulation of miR-135 expression in human SK-HEP1 cells at 10 uM by qRT-PCR analysis; type: functional, cell-based
[3] = system: SK-HEP1; test: Downregulation of mature miR-21 expression in human SK-HEP1 cells at 10 uM incubated for 24 hrs; type: functional, cell-based
[4] = biological target: T1, Programmed cell death protein 4 (Homo sapiens) (UniProt Q53EL6); test: Inhibition of PDCD4 in human HeLa cells tranfected with pCI-neo-luciferase-PDCD4 3'-UTR plasmid assessed as fold change in luciferase signal by measuring relative luciferase unit by luciferase reporter assay; type: cell-based
T1 sequence (whole entry): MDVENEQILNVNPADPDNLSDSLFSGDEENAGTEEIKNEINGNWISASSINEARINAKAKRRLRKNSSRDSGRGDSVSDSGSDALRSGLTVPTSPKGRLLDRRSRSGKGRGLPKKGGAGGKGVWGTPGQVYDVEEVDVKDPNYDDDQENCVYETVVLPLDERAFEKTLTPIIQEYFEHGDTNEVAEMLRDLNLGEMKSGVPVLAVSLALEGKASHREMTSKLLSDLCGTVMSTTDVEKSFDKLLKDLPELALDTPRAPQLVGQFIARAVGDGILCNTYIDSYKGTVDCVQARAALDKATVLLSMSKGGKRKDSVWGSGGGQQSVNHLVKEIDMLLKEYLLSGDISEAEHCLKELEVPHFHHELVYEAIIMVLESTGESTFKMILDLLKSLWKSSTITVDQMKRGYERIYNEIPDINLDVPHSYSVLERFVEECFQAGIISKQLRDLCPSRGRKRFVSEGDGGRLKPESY

[5] = system: SK-HEP1; test: Antitumor activity against human SK-HEP1 cells xenografted in SCID mouse assessed as reduction in number of intrahepatic migration lesions at 10 to 25 mg/kg, ip administered every 2 days for 4 weeks by hematoxyin-eosin staining based analysis; type: functional, organism-based; settings: dose 10-25 mg/kg
[6] = system: SK-HEP1; test: Upregulation of let-7 expression in human SK-HEP1 cells at 10 uM by qRT-PCR analysis; type: functional, cell-based
[7] = system: SK-HEP1; test: Upregulation of TIMP4 expression in human SK-HEP1 cells at 1 to 25 uM by Western blotting analysis; type: functional, cell-based; settings: dose 1-25 µM
[8] = system: MHCC97-L; test: Upregulation of miR-125 expression in human MHCC97-L cells at 10 uM by qRT-PCR analysis; type: functional, cell-based
[9] = system: HepG2; test: Upregulation of pri-miR-122 in human HepG2 cells at 10 uM incubated for 6 hrs by qRT-PCR analysis; type: functional, cell-based
[10] = Toxicity in SCID mouse xenografted with human MHCC97-L cells assessed as effect on kidney at 10 to 50 mg/kg, ip administered every 2 days for 4 weeks by hematoxyin-eosin staining based analysis; type: organism-based; settings: in vivo, 672 h, dose 10-50 mg/kg
[11] = system: MHCC97-L; test: Inhibition of cell migration in human MHCC97-L cells assessed as reduction of cell mobility at 1 to 25 uM measured at 24 hrs by well scratch method; type: functional, cell-based; settings: dose 1-25 µM
[12] = system: SK-HEP1; test: Inhibition of cell migration in human SK-HEP1 cells assessed as reduction of cell mobility at 1 to 25 uM measured at 24 hrs by well scratch method; type: functional, cell-based; settings: dose 1-25 µM
[13] = system: SK-HEP1; test: Downregulation of beta-catenin expression level in TRBP siRNA transfected human SK-HEP1 cells incubated for 48 hrs by Western blotting analysis; type: functional, cell-based
[14] = system: HCCLM3; test: Inhibition of cell invasion in human HCLLM3 cells at 1 to 25 uM measured after 24 hrs by crystal violet staining based transwell assay; type: functional; settings: dose 1-25 µM
[15] = system: MHCC97-L; test: Downregulation of miR-18a expression in human MHCC97-L cells at 10 uM by qRT-PCR analysis; type: functional, cell-based
[16] = system: Mus musculus; test: Downregulation of beta-catenin expression in liver of SCID mouse xenografted with human SK-HEP1 cells at 10 to 50 mg/kg, ip administered every 2 days for 4 weeks by immunohistochemical staining analysis; type: functional, organism-based; settings: dose 10-50 mg/kg
[17] = system: HeLa; test: Inhibition of microRNA in human HeLa cells transfected with pCI-neo-luciferase-miR-21 plasmid assessed as change in luciferase signal by measuring relative luciferase unit by luciferase reporter assay; type: cell-based
[18] = system: Mus musculus; test: Upregulation of E-cadherin expression in liver of SCID mouse xenografted with human SK-HEP1 cells at 10 to 50 mg/kg, ip administered every 2 days for 4 weeks by immunohistochemical staining analysis; type: functional, organism-based; settings: dose 10-50 mg/kg
[19] = system: HeLa; test: Downregulation of miR-155 expression in human HeLa cells at 10 uM incubated for 6 hrs by qRT-PCR analysis; type: functional
[20] = system: SK-HEP1; test: Upregulation of E-cadherin expression in human SK-HEP1 cells at 1 to 25 uM by Western blotting analysis; type: functional, cell-based; settings: dose 1-25 µM
[21] = system: SK-HEP1; test: Downregulation of RHOB expression in human SK-HEP1 cells at 1 to 25 uM by Western blotting analysis; type: functional, cell-based; settings: dose 1-25 µM
[22] = Toxicity in SCID mouse xenografted with human MHCC97-L cells assessed as effect on heart at 10 to 50 mg/kg, ip administered every 2 days for 4 weeks by hematoxyin-eosin staining based analysis; type: organism-based; settings: in vivo, 672 h, dose 10-50 mg/kg
[23] = system: SK-HEP1; test: Upregulation of miR-125 expression in human SK-HEP1 cells at 10 uM by qRT-PCR analysis; type: functional, cell-based
[24] = system: SK-HEP1; test: Downregulation of vimentin expression level in TRBP siRNA transfected human SK-HEP1 cells incubated for 48 hrs by Western blotting analysis; type: functional, cell-based
[25] = system: SK-HEP1; test: Upregulation of PDCD4 protein expression in human SK-HEP1 cells incubated for 24 hrs by Western blotting analysis; type: functional, cell-based; settings: dose 1-50 µM, DDE = dose-dependent effect
[26] = Inhibition of microRNA in human HeLa cells transfected with pCI-neo-luciferase-miR-21 plasmid assessed as change in luciferase signal incubated for 24 hrs by luciferase reporter assay; type: cell-based
[27] = system: SK-HEP1; test: Downregulation of vimentin expression in human SK-HEP1 cells at 1 to 25 uM by Western blot analysis; type: functional, cell-based; settings: dose 1-25 µM
[28] = system: SK-HEP1; test: Downregulation of fibronectin expression in human SK-HEP1 cells at 1 to 25 uM by Western blot analysis; type: functional, cell-based; settings: dose 1-25 µM
[29] = system: MHCC97-L; test: Downregulation of miR-135 expression in human MHCC97-L cells at 10 uM by qRT-PCR analysis; type: functional, cell-based
[30] = system: HeLa; test: Upregulation of pri-miR-155 in human HeLa cells at 10 uM incubated for 6 hrs by qRT-PCR analysis; type: functional, cell-based
[31] = system: SK-HEP1; test: Downregulation of PTEN protein expression in pCMV3-TRBP transfected human SK-HEP1 cells at 10 uM incubated for 24 hrs by Western blotting analysis; type: functional, cell-based
[32] = system: SK-HEP1; test: Downregulation of ZEB2 expression in human SK-HEP1 cells at 1 to 25 uM by Western blotting analysis; type: functional, cell-based; settings: dose 1-25 µM
[33] = system: MHCC97-L; test: Inhibition of cell migration in human MHCC97-L cells at 1 to 25 uM measured after 24 hrs by crystal violet staining based transwell assay; type: functional; settings: dose 1-25 µM

SMILES: CCOC(=O)c1nc(-c2ccc(OC)cc2)oc1C
- Activity [1]: Non-Toxic
- Activity [2]: Active
- Activity [3]: Active
- RLU [4]: 2.13
- Activity [5]: Active
- Activity [6]: Active
- Activity [7]: Active
- Activity [8]: Active
- Activity [9]: Active
- Activity [10]: Non-Toxic
- inhibition [11]: Active
- inhibition [12]: Active
- Activity [13]: Active
- inhibition [14]: Active
- Activity [15]: Active
- Activity [16]: Active
- RLU [17]: 5.68
- Activity [18]: Active
- Activity [19]: 60%
- Activity [20]: Active
- Activity [21]: Active
- Activity [22]: Non-Toxic
- Activity [23]: Active
- Activity [24]: Active
- Activity [25]: Dde
- EC50 [26]: 1380 nM
- Activity [27]: Active
- Activity [28]: Active
- Activity [29]: Active
- Activity [30]: Active
- Activity [31]: Active
- Activity [32]: Active
- inhibition [33]: Active
